Publication PMC8753592, “Long-acting capsid inhibitor protects macaques from repeat SHIV challenges” (Nature, 2021)
“And” between values parts separate entries of the source, which are not always exact repeats. Equal values may be shown once. Read-outs that look alike come from different tables or passages of the source.

How the values were obtained:
[1] = Plasma GS-CA1 pharmacokinetics in the repeat SHIV challenge study; format: in vivo, rhesus macaques of Indian origin
Protocol: For the challenge study, 24 outbred rhesus macaques of Indian origin were assigned to the three study groups with even sex and weight distributions. All animals were housed at Alpha Genesis (Yemassee, SC), and all procedures were conducted in compliance with all relevant local, state and federal regulations and were approved by the Alpha Genesis IACUC. […] The injection sites were monitored daily by veterinary staff for 3 days. Beginning in week 1, animals in all three groups were challenged by the intrarectal route with 1 ml of RPMI containing the specified dilution of a 3.62 × 10^3 TCID50 SHIV-SF162P3 stock. At each respective time point, the challenges were performed on the same day, using the same virus stock and inoculation method across the three groups. Whole blood was collected and processed into plasma and PBMCs as necessary to assess routine haematology, clinical chemistry, viral load and serology as well as for bioanalysis of drug levels. The animals were considered to be protected if they remained SHIV negative by plasma PCR assay and seronegative by enzyme immunoassay throughout the 15-week challenge phase and the 9-week follow-up.
Rhesus plasma samples were stored frozen at −80 °C.

CA monomer = settings: ref Yant et al, Nat.Med, 2019;[4]; read-out: Binding Affinity (KD), CA monomer; cited from earlier work
CA pentamer = settings: ref Yant et al, Nat.Med, 2019;[4]; read-out: Binding Affinity (KD), CA pentamer; cited from earlier work
[2] = ref Yant et al, Nat.Med, 2019;[4]; cited from earlier work
[3] = both sexes, Indian origin, rhesus monkey, in vivo, sc, 150 mg/kg, 150 mg/kg single s.c., n=8, mean ± SD
[4] = both sexes, Indian origin, rhesus monkey, in vivo, sc, 300 mg/kg, 300 mg/kg single s.c., n=8, mean ± SD
[5] = both sexes, Indian origin, rhesus monkey, in vivo, sc, 150 mg/kg single s.c., n=8, mean ± SD
[6] = both sexes, Indian origin, rhesus monkey, in vivo, sc, 300 mg/kg single s.c., n=8, mean ± SD

With `CC(C)(C#Cc1ccc(-c2ccc(Cl)c3c(NS(=O)(=O)C4CC4)nn(CC(F)F)c23)c([C@H](Cc2cc(F)cc(F)c2)NC(=O)Cn2nc(C(F)F)c3c2C(F)(F)[C@@H]2C[C@H]32)n1)S(C)(=O)=O` [GS-CA1] the “Plasma GS-CA1” value ([1]; 150 mg/kg single s.c., Week 12, individual animals) was 46.73 nM and 64.14 nM, the “Plasma GS-CA1” value ([1]; 150 mg/kg single s.c., Week 13, individual animals) was 44.36 nM and the “Plasma GS-CA1” value ([1]; 150 mg/kg single s.c., Week 14, individual animals) was 34.07 nM. The “Plasma GS-CA1” value ([1]; 150 mg/kg single s.c., Week 15, individual animals) was 17.38 nM, the “Plasma GS-CA1” value ([1]; 150 mg/kg single s.c., Week 16, individual animals) was 12.74 nM and the “Plasma GS-CA1” value ([1]; 150 mg/kg single s.c., Week 17, individual animals) was 16.54 nM. The “Plasma GS-CA1” value ([1]; 150 mg/kg single s.c., Week 18, individual animals) was 11.37 nM, the “Plasma GS-CA1” value ([1]; 150 mg/kg single s.c., Week 19, individual animals) was 19.32 nM and the “Plasma GS-CA1” value ([1]; 150 mg/kg single s.c., Week 20, individual animals) was 17.47 nM. The “Plasma GS-CA1” value ([1]; 150 mg/kg single s.c., Week 21, individual animals) was 4.49 nM, the “Plasma GS-CA1” value ([1]; 150 mg/kg single s.c., Week 22, individual animals) was 3.38 nM and the “Plasma GS-CA1” value ([1]; 150 mg/kg single s.c., Week 23, individual animals) was 2.14 nM. The “Plasma GS-CA1” value ([1]; 150 mg/kg single s.c., Week 24, individual animals) was 4.67 nM, the “time above the rhesus paEC95” value ([1]; 300 mg/kg single s.c.) was 14–16 weeks and the “time six times above the rhesus paEC95” value ([1]; 300 mg/kg single s.c.) was 5–8 weeks. For the same compound, the Cmax ([1]; 300 mg/kg single s.c., n=8, mean ± SD) was 5.53 ± 1.47 µM, the concentration at 12 week ([1]; both sexes, Indian origin (outbred), rhesus monkey, in vivo, 300 mg/kg, Plasma GS-CA1, GS-CA1 300mg/kg, Week 12, individual animals) was 0.0834 µM and the concentration at 15 week ([1]; both sexes, Indian origin (outbred), rhesus monkey, in vivo, 300 mg/kg, Plasma GS-CA1, GS-CA1 300mg/kg, Week 15, individual animals) was 0.0454 µM. It also gave a concentration at 12 weeks ([1]; both sexes, Indian origin, outbred, rhesus monkey, in vivo, 300 mg/kg, Plasma GS-CA1, 300 mg/kg single s.c., Week 12, individual animals) of 0.0834 µM, a concentration at 15 weeks ([1]; both sexes, Indian origin, outbred, rhesus monkey, in vivo, 300 mg/kg, Plasma GS-CA1, 300 mg/kg single s.c., Week 15, individual animals) of 0.0454 µM and a Cmax [1, 3] of 3 µM. For the same compound, the Tmax [1, 3] was roughly 1 days, the Cmax [1, 4] was 5.5 µM and the Tmax [1, 4] was roughly 1.75 days. The AUC(0-inf) [1, 5] was 960 ± 435 µM·h, the AUC(0-t) [1, 5] was 959 ± 435 µM·h and the half-life ([1]; both sexes, Indian origin, rhesus monkey, in vivo, sc, 150 mg/kg single s.c., n=8, mean ± SD, read-out: t1/2 (converted)) was 13.2 ± 5.5 days. For the same compound, the AUC(0-inf) [1, 6] was 2040 ± 722 µM·h, the AUC(0-t) [1, 6] was 2040 ± 722 µM·h and the half-life ([1]; both sexes, Indian origin, rhesus monkey, in vivo, sc, 300 mg/kg single s.c., n=8, mean ± SD, read-out: t1/2 (converted)) was 12 ± 1.88 days. For the same compound, the half-life ([1]; both sexes, Indian origin, rhesus monkey, in vivo, range over the 150 and 300 mg/kg groups, read-out: mean half-life) was 12 to 13.2 days, the Kd (CA monomer) was 3.9 nM and the Kd (CA pentamer) was 0.27 nM. For the same compound, the “Predicted Hepatic Clearance, rate, primary human hepatocytes” value [2] was 0.02 L/h/kg.
